Measurements as given in patent US20240301003A1 (NoNO Inc., priority 2021, published 2024).
Like-named read-outs stand apart in the source and are kept apart here. Where a SMILES comes first, the peptide text is derived from it. Where no end group is shown, it is not given here.

How the values were obtained:
[1] = Renal biomarkers or electrolyte imbalance after administration to rats (Table 7); assay type: in vivo
Protocol: NoNO42 was tested for effect on various renal biomarkers or electrolyte imbalance in comparison with nerinetide after administration to rats as shown in Table 7.

[2] = rat, in vivo
Protocol: Blood plasma samples were collected before injection and at 10, 15, 20, 30, 45, 60 min post-dose. Each point represents the mean (±SD) of three animals per group.

[3] = rat, in vivo; for Weight: iv
plasmin [4] = molecular target: T1, plasmin (Homo sapiens, UniProt P00747); experiment: in vitro; conditions: isolated enzyme plasmin
NMDAR2B:PSD-95 complexes = molecular target: T2, NMDAR2B:PSD-95 complexes (Rattus norvegicus, UniProt P31016); experiment: Dissociation of NMDAR2B:PSD-95 complexes after 3PVo, immunoprecipitation and Western blotting; assay type: in vivo, Sprague-Dawley rats; conditions: 7.6 mg/kg 1 hr after stroke onset (3PVo), brains harvested 2 h after onset
T2 construct: Cortical stroke areas were collected for analysis; from tissue; host or cells: rat brain cortex (stroke area) after in vivo dosing
Protocol: Sprague-Dawley rats were subject to three pial vessel model (3PVo). […] Brains were harvested 2 h after stroke onsets. Cortical stroke areas were collected for analysis. Immunoprecipitations were performed with anti-PSD-95 or anti-NMDAR2B. The amount of PSD-95 and NMDAR2B in samples was analyzed by Western blotting. Reduction in PSD-95-NMDAR2B complex formation was assessed by fold decrease of placebo versus treatment.

[5] = Plasma concentrations 15 minutes post subcutaneous dose (animals of the 3PVO model); assay type: in vivo, rat; conditions: single subcutaneous administration, 2.5, 7.6, 25 mg/kg
Protocol: Unlike transient models of stroke in rats where much lower doses are required for neuroprotection, neuroprotection in 3 pial vessel occlusion models of stroke seems to require plasma concentrations of nerinetide at or above 2 ug/mL (or molar equivalent). […] Although the plasma levels continue to increase through about 3 hours then decrease, it is important to achieve rapid accumulation in the blood and brain for emergency indications like stroke. […] For pharmacokinetic sample analysis, calibration standard samples at concentrations of 0, 2.5, 5, 10, 15, 20 and 40 ug/mL of nerinetide were prepared by spiking 1 μL of the appropriate stock to 100 μL of plasma. […] Data is presented as mean±SD.

tMCAo = experiment: Dose range of nerinetide in rat tMCAo model; assay type: in vivo, rats
Protocol: Nerinetide and lodoxamide was administered to rats intravenously as a bolus injection, 60 minutes after tMCAo. […] Bars in A and represent mean±SD, with all individual data points plotted. Asterisks in A indicate P<0.01 when compared to the vehicle group (one-way ANOVA post hoc Tukey's correction for multiple comparisons test) N=12-14 animals/group. […] Significant differences are indicated with an asterisk when compared to the vehicle group (Kruskal-Wallis analysis of variance on ranks with a post-hoc Dunn's correction for multiple comparisons test, *P<0.01). Vehicle: PBS alone. […] Doses up to at least 25 mg/kg were also effective with the highest efficacy being at about 15 mg/kg. The observed wide therapeutic range was attributable to nerinetide, and not to the mast cell degranulation inhibitor lodoxamide, which was present in all solutions to avoid potential hypotension due to histamine release.

tPA = tPA (Homo sapiens, UniProt P00750)
[6] = human studies, 2.6 mg/kg dose; cited from earlier work
[7] = humans; cited from earlier work
Weight gain of rats = conditions: IV 7.6 mg/kg
plasmin [8] = molecular target: T1, plasmin; assay type: in vitro ADME; set-up: challenged with 10 ug/ml plasmin at 37 C
Source text: Plasmin is a serum protease induced by thrombolytic agents, such as tPA. Plasmin cleavage sites can occur on the C-terminal side of basic amino acids residues in a peptide formed of L-amino acids. NA-1 was digested with plasmin and the products analyzed by mass spectrometry. […] However, cleavage at the other two sites may occur to a lesser extent.

plasmin [9] = molecular target: T1, plasmin; assay type: in vitro ADME; set-up: challenged with 10 ug/ml plasmin at 37 C; remark: listed apart in the source
PSD95PDZ2 = PSD95PDZ2 (Homo sapiens, UniProt P78352); experiment: Competitive ELISA with biotinylated-NA-1; conditions: PSD-95 domain 2, FIG. 12
[10] = Degradation in rat plasma in vitro, alone or with rt-PA or TNK
Source text: (§1) Samples were collected at 6 different time points.
(§2) The experiment was repeated using TNK-tissue plasminogen activator in place of tPA.

[11] = Degradation in human plasma in vitro, alone or with rt-PA or TNK
Source text: as §1, §2

[12] = system: 3-pial vessel occlusion model of stroke
plasmin [13] = molecular target: T1, plasmin; experiment: Plasmin sensitivity: peptides in PBS challenged with 10 ug/ml plasmin, HPLC
[14] = Pharmacokinetic analysis in rats (subcutaneous, pulmonary instillation, intravenous, intramuscular), HPLC
Protocol: Rats were anaesthetized in the supine position (Isoflurane 1.5--%) and allowed to breath spontaneously in 0.5 L/min 02. The left femoral artery was cannulated for blood sampling.
Test agents were prepared at the stablish concentration in a total volume of vehicle. Pulmonary instillation was performed by intubation with a 14G catheter connected to a 1 cc syringe and the test agent will be delivered through the catheter. Subcutaneous (SQ or SC) injection was injected into the area of the left flank, no more than 2 ml of total volume per site.
Each dose was evaluated in 3 rats for each administration strategy. […] For the first experiment, evaluating two different administration routes (SQ and PI), blood samples were collected at 8 different timepoints: Pre and at 7 additional times (1, 2.5, 5, 10, 15, 30, 60 min) post dose (250 ul/sample).
HPLC quantification: Plasma was separated from blood and stored at −−−80° C. until used. […] Standard curves for HPLC were generated from plasma samples spiked with known quantities of test agent.

[15] = cited from earlier work
[16] = Plasmin sensitivity: peptides in PBS challenged with 10 ug/ml plasmin, HPLC; conditions: isolated enzyme plasmin
[17] = IV bolus with lodoxamide 60 minutes after tMCAo

T1 sequence (P00747 581-810 limits assumed, species assumed): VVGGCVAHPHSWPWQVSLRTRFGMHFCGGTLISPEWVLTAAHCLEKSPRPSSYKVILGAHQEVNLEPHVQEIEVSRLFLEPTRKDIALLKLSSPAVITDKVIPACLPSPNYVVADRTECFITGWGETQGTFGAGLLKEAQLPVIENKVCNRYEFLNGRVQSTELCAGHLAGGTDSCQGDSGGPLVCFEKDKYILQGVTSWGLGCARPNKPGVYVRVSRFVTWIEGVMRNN
T1 sequence (P00747 97-580 partner limits assumed, species assumed): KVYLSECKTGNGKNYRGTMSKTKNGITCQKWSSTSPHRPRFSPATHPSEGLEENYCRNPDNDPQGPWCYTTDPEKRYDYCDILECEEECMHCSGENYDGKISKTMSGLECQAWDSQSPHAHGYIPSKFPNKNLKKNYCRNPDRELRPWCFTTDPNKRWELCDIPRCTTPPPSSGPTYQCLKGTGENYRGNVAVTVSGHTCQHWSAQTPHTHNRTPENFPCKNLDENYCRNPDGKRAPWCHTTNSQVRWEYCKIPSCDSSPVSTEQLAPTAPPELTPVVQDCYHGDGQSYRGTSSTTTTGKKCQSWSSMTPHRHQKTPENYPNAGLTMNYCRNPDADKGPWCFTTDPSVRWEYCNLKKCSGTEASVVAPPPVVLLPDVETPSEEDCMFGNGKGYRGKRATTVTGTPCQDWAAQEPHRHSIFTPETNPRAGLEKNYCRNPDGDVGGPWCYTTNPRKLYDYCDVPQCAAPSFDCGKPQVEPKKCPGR
Sequence of tPA (P00750 36-562): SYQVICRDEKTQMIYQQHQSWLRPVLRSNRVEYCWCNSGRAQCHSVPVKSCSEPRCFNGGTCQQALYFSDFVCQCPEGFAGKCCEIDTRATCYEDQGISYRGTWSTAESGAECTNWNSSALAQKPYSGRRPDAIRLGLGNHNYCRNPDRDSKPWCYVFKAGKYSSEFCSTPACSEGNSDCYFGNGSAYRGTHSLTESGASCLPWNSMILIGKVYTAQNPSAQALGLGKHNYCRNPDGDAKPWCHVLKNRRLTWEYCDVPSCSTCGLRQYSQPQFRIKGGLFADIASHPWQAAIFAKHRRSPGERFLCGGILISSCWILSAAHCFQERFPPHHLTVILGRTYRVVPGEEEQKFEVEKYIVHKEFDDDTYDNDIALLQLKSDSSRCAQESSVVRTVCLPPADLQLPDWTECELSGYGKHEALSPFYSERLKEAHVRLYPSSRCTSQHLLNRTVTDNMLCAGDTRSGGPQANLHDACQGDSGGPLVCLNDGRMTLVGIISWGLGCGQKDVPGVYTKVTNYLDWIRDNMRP
Sequence of PSD95PDZ2 (P78352 160-246 limits assumed): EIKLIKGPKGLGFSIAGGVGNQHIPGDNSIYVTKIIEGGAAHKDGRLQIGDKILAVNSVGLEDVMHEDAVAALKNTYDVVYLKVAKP
T2 sequence (P31016 whole entry, one chain of several): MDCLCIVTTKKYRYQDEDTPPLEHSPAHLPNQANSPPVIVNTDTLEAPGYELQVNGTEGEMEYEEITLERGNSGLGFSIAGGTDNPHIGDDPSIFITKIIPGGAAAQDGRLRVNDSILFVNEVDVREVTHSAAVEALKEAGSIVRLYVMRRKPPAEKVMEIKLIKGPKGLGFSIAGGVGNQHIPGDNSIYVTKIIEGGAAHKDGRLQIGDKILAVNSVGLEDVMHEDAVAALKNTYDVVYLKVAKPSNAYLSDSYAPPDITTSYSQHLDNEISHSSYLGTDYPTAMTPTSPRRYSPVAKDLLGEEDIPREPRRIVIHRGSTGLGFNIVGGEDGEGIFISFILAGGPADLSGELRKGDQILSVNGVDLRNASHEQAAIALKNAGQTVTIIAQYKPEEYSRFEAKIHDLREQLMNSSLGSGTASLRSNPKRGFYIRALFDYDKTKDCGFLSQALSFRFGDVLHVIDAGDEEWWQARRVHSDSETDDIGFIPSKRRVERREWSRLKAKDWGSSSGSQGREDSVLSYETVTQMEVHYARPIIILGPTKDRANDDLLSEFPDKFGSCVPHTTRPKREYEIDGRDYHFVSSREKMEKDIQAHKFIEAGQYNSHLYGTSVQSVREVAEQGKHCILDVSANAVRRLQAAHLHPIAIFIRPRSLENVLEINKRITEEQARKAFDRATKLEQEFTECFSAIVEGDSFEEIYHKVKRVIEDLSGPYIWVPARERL

## CC[C@H](C)[C@H](NC(=O)[C@H](CO)NC(=O)[C@H](CO)NC(=O)[C@H](CC(C)C)NC(=O)[C@@H](CCCCN)NC(=O)[C@H](CCCNC(=N)N)NC(=O)[C@H](CCCNC(=N)N)NC(=O)[C@@H](CCCNC(=N)N)NC(=O)[C@H](CCC(N)=O)NC(=O)[C@@H](CCCNC(=N)N)NC(=O)[C@H](CCCNC(=N)N)NC(=O)[C@H](CCCCN)NC(=O)[C@H](CCCCN)NC(=O)[C@@H](CCCNC(=N)N)NC(=O)CNC(=O)[C@@H](N)Cc1ccc(O)cc1)C(=O)N[C@@H](CCC(=O)O)C(=O)N[C@@H](CO)C(=O)N[C@@H](CC(=O)O)C(=O)N[C@H](C(=O)O)C(C)C [NoNO42] (HELM PEPTIDE1{Y.G.[dR].K.K.R.[dR].Q.[dR].R.R.[dK].L.S.S.I.E.S.D.V}$$$$V2.0; N-terminus and C-terminus assumed)
[1]; rat, in vivo
  renal biomarkers or electrolyte imbalance in comparison with nerinetide: No significant difference was observed
[1]; rat, in vivo, iv, 3.8 mg/kg
  Creatinine: 0.2 mg/dL
[1]; rat, in vivo, iv, 5.7 mg/kg
  iCa: 1.47 mmol/L
[1]; rat, in vivo, iv, 7.6 mg/kg
  Creatinine: 0.2 mg/dL
  tCO2: 33.7 mmol/L
[1]; rats, IV 3.8 mg/kg, Day 4
  Na+: 137.3 mmol/L
[1]; rats, IV 3.8 mg/kg, Pre
  Cl: 98.3 mmol/L
  iCa: 1.43 mmol/L
[1]; rats, IV 5.7 mg/kg, Day 4
  Na+: 137.3 mmol/L
[1]; rats, IV 5.7 mg/kg, Day 14
  iCa: 1.46 mmol/L
[1]; rats, IV 5.7 mg/kg, Pre
  iCa: 1.46 mmol/L
[1]; rats, IV 7.6 mg/kg, Day 4
  iCa: 1.46 mmol/L
  tCO2: 35.7 mmol/L
[1]; rats, IV 7.6 mg/kg, Day 14
  Cl: 98.3 mmol/L
  Hgb: 13.4 g/dL
  Na+: 137.3 mmol/L
  tCO2: 35.7 mmol/L
[2]
  CMax of NoNO42 5.7 mg/kg versus nerinetide 7.6 mg/kg: same CMax
[3]
  weight gain compared with nerinetide: No significant difference was seen
[3]; 3.8 mg/kg
  Weight: 342.3 grams
[3]; 5.7 mg/kg
  Weight: 341.7 grams
[3]; 7.6 mg/kg
  Weight: 331.0 grams
Plasmin [4]
  remaining at 0.5 h, 65 ug/ml: ~100%

## YGRKKRRQRRRKLSSIESDV [NA-1, reference compound]
NMDAR2B:PSD-95 complexes
  dissociation of preformed NMDAR2B:PSD-95 complexes: able to dissociate preformed NMDAR2B:PSD-95 complexes
[5]
  relation between treatment dose and Cmax: dose proportionality between the treatment dose and the Cmax
tMCAo; [17]
  dose of highest efficacy: about 15 mg/kg
  doses up to which nerinetide was effective: at least 25 mg/kg
tMCAo; IV bolus with lodoxamide 60 minutes after tMCAo, 24 hours
  lowest dose producing significant reduction in infarct volume and improvement in neurological function: 0.25 mg/kg
tMCAo; rat tMCAo model, at least this range
  effective dosage range (reducing infarction size and neurologic deficit): 0.25-25 mg/kg
[1]; rats, IV 7.6 mg/kg, Day 4
  Anion Gap: 7.3 mmol/L
  BUN: 13.7 mg/dL
  Cl: 100.7 mmol/L
  Creatinine: 0.2 mg/dL
  Glucose: 178.0 mg/dL
  Hct: 39% ± % PCV
  Hgb: 13.4 g/dL
  K+: 4.8 mmol/L
  Na+: 137.3 mmol/L
  iCa: 1.43 mmol/L
  tCO2: 35.0 mmol/L
[1]; rats, IV 7.6 mg/kg, Day 14
  Anion Gap: 9.0 mmol/L
  BUN: 16.7 mg/dL
  Cl: 98.3 mmol/L
  Creatinine: 0.2 mg/dL
  Glucose: 253.3 mg/dL
  Hct: 38% ± % PCV
  Hgb: 13.0 g/dL
  K+: 4.4 mmol/L
  Na+: 136.7 mmol/L
  iCa: 1.45 mmol/L
  tCO2: 34.3 mmol/L
[1]; rats, IV 7.6 mg/kg, Pre
  Anion Gap: 7.3 mmol/L
  BUN: 15.0 mg/dL
  Cl: 98.0 mmol/L
  Creatinine: 0.2 mg/dL
  Glucose: 251.7 mg/dL
  Hct: 38% ± % PCV
  Hgb: 13.0 g/dL
  K+: 4.8 mmol/L
  Na+: 135.7 mmol/L
  iCa: 1.46 mmol/L
  tCO2: 35.7 mmol/L
tPA
  degradation, control treatment with tPA: no degradation
  direct cleavage by tPA or TNK: Neither tPA nor TNK directly cleaves NA-1
[6]
  effective plasma concentration: ~10 µg/mL
[7]
  doses at which drops in blood pressure have been observed: above 3.75 mg/kg
Weight gain of rats; Day 4
  Weight: 368.0 grams
Weight gain of rats; Day 14
  Weight: 420.0 grams
Weight gain of rats; Pre
  Weight: 360.3 grams
Plasmin [8]
  plasmin cleavage sites: cleavage at seven of nine potential sites
Plasmin [9]
  degradation on treatment with plasmin: rapidly degraded
PSD95PDZ2
  EC50 (compared between peptides): about the same within experimental error
[10]; rat plasma (FIG. 8)
  degradation with coadministration of TNK: rapid degradation
[10]; rat plasma in vitro, NA-1 65 ug/mL, rt-PA 22.5-135 ug/mL
  NA-1 content decay with tPA versus NA-1 alone: decayed much more rapidly when tPA was co-administered
[10]; rat plasma in vitro, treated with tPA
  time to decay to zero: ≤ 15 min
[11]; human plasma (FIG. 7)
  degradation with coadministration of TNK: rapid degradation
[11]; human plasma in vitro, NA-1 65 ug/mL, rt-PA 22.5-135 ug/mL
  NA-1 content decay with tPA versus NA-1 alone: decayed much more rapidly when tPA was co-administered
[12]; 7.6 mg/kg subcutaneous bolus 60 minutes after onset of stroke
  infarct volume compared to placebo: failed to achieved infarct volume reduction
[12]; 25 mg/kg subcutaneous bolus 60 minutes after onset of stroke
  infarct volume compared to placebo: significant reduction in infarct volume
[12]; 3 pial vessel occlusion models of stroke
  plasma concentration required for neuroprotection: ≥ 2 µg/mL
Plasmin [13]; 10 ug/mL plasmin (FIG. 29)
  time to degradation: ≤ 5 min
Plasmin [13]; about 65 ug/ml peptide in PBS, 10 ug/ml plasmin, 37 C, HPLC
  degradation by plasmin: completely degraded in about five minutes
[14]; intramuscular
  AUC versus intravenous NA-1: somewhat higher
  CMax versus intravenous NA-1: lower
  half-life versus intravenous NA-1: higher
[14]; subcutaneous
  AUC versus the same dose of intravenous NA-1: somewhat lower
  CMax versus the same dose of intravenous NA-1: much lower
  half-life versus intravenous NA-1: longer

## N[C@@H](Cc1ccc(O)c(O)c1)C(=O)O [Levodopa]
[15]
  half-life: 1.5 h

## CC[C@H](C)[C@H](NC(=O)[C@H](CO)NC(=O)[C@H](CO)NC(=O)[C@H](CC(C)C)NC(=O)[C@H](CCCCN)NC(=O)[C@H](CCCNC(=N)N)NC(=O)[C@@H](CCCNC(=N)N)NC(=O)[C@H](CCCNC(=N)N)NC(=O)[C@H](CCC(N)=O)NC(=O)[C@@H](CCCNC(=N)N)NC(=O)[C@H](CCCNC(=N)N)NC(=O)[C@H](CCCCN)NC(=O)[C@@H](CCCCN)NC(=O)[C@H](CCCNC(=N)N)NC(=O)CNC(=O)[C@@H](N)Cc1ccc(O)cc1)C(=O)N[C@@H](CCC(=O)O)C(=O)N[C@@H](CO)C(=O)N[C@@H](CC(=O)O)C(=O)N[C@H](C(=O)O)C(C)C [NA-4.4.3] (HELM PEPTIDE1{Y.G.R.[dK].K.R.[dR].Q.R.[dR].R.K.L.S.S.I.E.S.D.V}$$$$V2.0; N-terminus and C-terminus assumed)
[16]
  remaining at 0.5 h, 65 ug/ml: > 85%
